Laboratory results reported in ChEMBL document CHEMBL5614402, “Discovery of novel pyrazolo[1,5-a]pyrimidine derivatives as potent reversal agents against ABCB1-mediated multidrug resistance” (Eur J Med Chem, 2024).
The source made the active and inactive calls. The calls are words filed in the database; no cut-off is given here.

Legend:
[1] = system: NCI/ADR-RES; test: Induction of apoptosis in human MCF7ADR cells assessed as necrotic cells at 10 uM by Annexin V-FITC and propidium iodide staining based flow cytometry analysis (reference value: 3.14%); format: functional
[2] = molecular target: T1, Tubulin (Homo sapiens) (UniProt P68371+Q9H4B7+P0DPH7+P68366+Q13509+Q71U36+P04350+Q3ZCM7+P07437+P68363+Q9BQE3+Q6PEY2+Q13885+Q9BVA1+Q9BUF5); test: Induction of paclitaxel mediated tubulin […] in human MCF7ADR cells assessed as appearance of cellular multinucleation at 10 uM incubated for 72 hrs in presence of paclitaxel; format: cell-based; conditions: filed as activator
[3] = system: MCF7; test: Reversal of paclitaxel resistance in human MCF7 cells; format: functional, cell-based
[4] = system: NCI/ADR-RES; test: Antiproliferative activity against human MCF7ADR cells assessed as survival rate at 5 uM incubated for 72 hrs by MTT assay; format: functional; conditions: read-out: Survival
[5] = Cytotoxicity against HEK293T cells assessed as cell viability at 10 uM; format: toxicity, cell-based, HEK-293T; conditions: human, read-out: Activity
[6] = system: NCI/ADR-RES; test: Induction of paclitaxel mediated apoptosis in human MCF7ADR cells assessed as early apoptotic cells at 10 uM in presence of paclitaxel by Annexin V-FITC and propidium iodide staining based flow cytometry analysis (reference value: 3.87%); format: functional
[7] = system: NCI/ADR-RES; test: Induction of paclitaxel mediated apoptosis in human MCF7ADR cells assessed as late apoptotic cells at 10 uM in presence of paclitaxel by Annexin V-FITC and propidium iodide staining based flow cytometry analysis (reference value: 7.24%); format: functional
[8] = system: NCI/ADR-RES; test: Reversal of paclitaxel resistance in human MCF7ADR cells assessed as reduction in paclitaxel IC50 at 5 uM pretreated with compound for 4 hrs followed by paclitaxel addition and measured after 72 hrs by MTT assay (reference value: 6.68 +/- 0.35 microM); format: functional, cell-based
[9] = system: NCI/ADR-RES; test: Inhibition of cell proliferation in human MCF7ADR cells assessed as reduction in cellular proliferation cells at 10 uM in presence of paclitaxel by EdU staining based assay; format: functional
[10] = system: NCI/ADR-RES; test: Reversal of paclitaxel resistance in human MCF7ADR cells assessed as reversal fold by measuring ratio of paclitaxel IC50 to paclitaxel IC50 in presence of test compound at 10 uM incubated for 72 hrs by MTT assay; format: functional
[11] = system: NCI/ADR-RES; test: Antiproliferative activity against human MCF7ADR cells incubated for 72 hrs by MTT assay; format: functional, cell-based
[12] = system: NCI/ADR-RES; test: Induction of apoptosis in human MCF7ADR cells assessed as viable cells at 10 uM by Annexin V-FITC and propidium iodide staining based flow cytometry analysis (reference value: 85.75%); format: functional; conditions: read-out: Activity
[13] = system: NCI/ADR-RES; test: Reversal of paclitaxel resistance in human MCF7ADR cells assessed as reversal fold by measuring ratio of paclitaxel IC50 to paclitaxel IC50 in presence of test compound at 5 uM incubated for 72 hrs by MTT assay; format: functional
[14] = system: NCI/ADR-RES; test: Induction of DNA damage in human MCF7ADR cells at 10 uM by comet assay; format: functional, cell-based
[15] = system: NCI/ADR-RES; test: Induction of paclitaxel mediated apoptosis in human MCF7ADR cells assessed as nuclear fragmentation at 10 uM in presence of paclitaxel by DAPI staining based assay; format: functional, cell-based
[16] = molecular target: T2, ATP-dependent translocase ABCB1 (Homo sapiens, UniProt P08183); test: Binding affinity to ABCB1 (unknown origin) assessed as reduction in protein hydrolysis at 10 to 100 uM incubated for 1 hr followed by alkaline protease addition and measured after 15 mins by Western blotting analysis; conditions: 1.25 h, dose 10-100 µM, time 75 min
[17] = Cytotoxicity against human GES1 cells assessed as cell viability at 10 uM; format: toxicity, cell-based; conditions: read-out: Activity
[18] = system: MCF7; test: Reversal of paclitaxel resistance in human MCF7 cells assessed as reversal fold by measuring ratio of paclitaxel IC50 to paclitaxel IC50 in presence of test compound at 10 uM incubated for 72 hrs by MTT assay; format: functional
[19] = system: NCI/ADR-RES; test: Reversal of paclitaxel resistance in human MCF7ADR cells at 10 uM; format: functional, cell-based
[20] = system: NCI/ADR-RES; test: Induction of paclitaxel mediated apoptosis in human MCF7ADR cells assessed as viable cells at 10 uM in presence of paclitaxel by Annexin V-FITC and propidium iodide staining based flow cytometry analysis (reference value: 85.75%); format: functional; conditions: read-out: Activity
[21] = system: MCF7; test: Reversal of paclitaxel resistance in human MCF7 cells assessed as reduction in paclitaxel IC50 at 10 uM pretreated with compound for 4 hrs followed by paclitaxel addition and measured after 72 hrs by MTT assay (reference value: 2.60 +/- 0.36 nM); format: functional, cell-based
[22] = molecular target: T1, Tubulin (Homo sapiens); test: Induction of paclitaxel mediated tubulin […] in human MCF7ADR cells assessed as appearance of filamentous microtubules at 10 uM incubated for 72 hrs in presence of paclitaxel; format: cell-based; conditions: filed as activator
[23] = system: NCI/ADR-RES; test: Induction of apoptosis in human MCF7ADR cells assessed as early apoptotic cells at 10 uM by Annexin V-FITC and propidium iodide staining based flow cytometry analysis (reference value: 3.87%); format: functional
[24] = system: MCF7; test: Reversal of paclitaxel resistance in human MCF7 cells assessed as reduction in paclitaxel IC50 at 5 uM pretreated with compound for 4 hrs followed by paclitaxel addition and measured after 72 hrs by MTT assay (reference value: 2.60 +/- 0.36 nM); format: functional, cell-based
[25] = system: NCI/ADR-RES; test: Inhibition of colony formation in human MCF7ADR cells at 10 uM incubated for 7 days in presence of paclitaxel by crystal violet staining based assay; format: functional, cell-based; conditions: time 7.0 day
[26] = system: NCI/ADR-RES; test: Induction of paclitaxel mediated DNA damage in human MCF7ADR cells at 10 uM in presence of paclitaxel by comet assay; format: functional, cell-based
[27] = system: NCI/ADR-RES; test: Effect on subcellular localization of ABCB1 in human MCF7ADR cells at 10 uM incubated for 48 hrs by DAPI staining based assay; format: functional, cell-based
[28] = system: MCF7; test: Reversal of paclitaxel resistance in human MCF7 cells assessed as reversal fold by measuring ratio of paclitaxel IC50 to paclitaxel IC50 in presence of test compound at 5 uM incubated for 72 hrs by MTT assay; format: functional
[29] = molecular target: T1, Tubulin (Homo sapiens); test: Inhibition of tubulin depolymerization in human MCF7ADR cells assessed as change in microtubule morphology at 10 uM incubated for 72 hrs; format: cell-based
[30] = system: NCI/ADR-RES; test: Induction of paclitaxel mediated apoptosis in human MCF7ADR cells assessed as necrotic cells at 10 uM in presence of paclitaxel by Annexin V-FITC and propidium iodide staining based flow cytometry analysis (reference value: 3.14%); format: functional
[31] = system: NCI/ADR-RES; test: Induction of apoptosis in human MCF7ADR cells assessed as late apoptotic cells at 10 uM by Annexin V-FITC and propidium iodide staining based flow cytometry analysis (reference value: 7.24%); format: functional
[32] = system: MCF7; test: Antiproliferative activity against human MCF7 cells incubated for 72 hrs by MTT assay; format: functional, cell-based; conditions: MCF7, 72 h
[33] = system: NCI/ADR-RES; test: Induction of cell cycle arrest in human MCF7ADR cells assessed as accumulation of cells at G2/M phase at 10 uM in presence of paclitaxel by propidium iodide staining based flow cytometry analysis; format: functional
[34] = system: NCI/ADR-RES; test: Induction of paclitaxel mediated apoptosis in human MCF7ADR cells assessed as reduction in nuclei size at 10 uM in presence of paclitaxel by DAPI staining based assay; format: functional, cell-based
[35] = system: NCI/ADR-RES; test: Effect on ABCB1 expression in human MCF7ADR cells upto 15 uM by Western blotting analysis; format: functional, cell-based
[36] = system: NCI/ADR-RES; test: Reversal of paclitaxel resistance in human MCF7ADR cells assessed as reduction in paclitaxel IC50 at 10 uM pretreated with compound for 4 hrs followed by paclitaxel addition and measured after 72 hrs by MTT assay (reference value: 6.68 +/- 0.35 microM); format: functional, cell-based
[37] = Cytotoxicity against HUVECs assessed as cell viability at 10 uM; format: toxicity, cell-based; conditions: human, HUVEC cells, read-out: Activity
[38] = system: NCI/ADR-RES; test: Induction of DNA damage in human MCF7ADR cells at 10 nM by comet assay; format: functional, cell-based
[39] = system: MCF7; test: Antiproliferative activity against human MCF7 cells assessed as survival rate at 5 uM incubated for 72 hrs by MTT assay; format: functional; conditions: read-out: Survival
[40] = molecular target: T2, ATP-dependent translocase ABCB1; test: Binding affinity to ABCB1 (unknown origin) assessed as change in thermal stability at 200 uM by CETSA
[41] = system: NCI/ADR-RES; test: Synergistic antiproliferative activity against human MCF7ADR cells assessed as combination index at 10 uM in presence of PTX; format: functional

T2 sequence (P08183 whole entry): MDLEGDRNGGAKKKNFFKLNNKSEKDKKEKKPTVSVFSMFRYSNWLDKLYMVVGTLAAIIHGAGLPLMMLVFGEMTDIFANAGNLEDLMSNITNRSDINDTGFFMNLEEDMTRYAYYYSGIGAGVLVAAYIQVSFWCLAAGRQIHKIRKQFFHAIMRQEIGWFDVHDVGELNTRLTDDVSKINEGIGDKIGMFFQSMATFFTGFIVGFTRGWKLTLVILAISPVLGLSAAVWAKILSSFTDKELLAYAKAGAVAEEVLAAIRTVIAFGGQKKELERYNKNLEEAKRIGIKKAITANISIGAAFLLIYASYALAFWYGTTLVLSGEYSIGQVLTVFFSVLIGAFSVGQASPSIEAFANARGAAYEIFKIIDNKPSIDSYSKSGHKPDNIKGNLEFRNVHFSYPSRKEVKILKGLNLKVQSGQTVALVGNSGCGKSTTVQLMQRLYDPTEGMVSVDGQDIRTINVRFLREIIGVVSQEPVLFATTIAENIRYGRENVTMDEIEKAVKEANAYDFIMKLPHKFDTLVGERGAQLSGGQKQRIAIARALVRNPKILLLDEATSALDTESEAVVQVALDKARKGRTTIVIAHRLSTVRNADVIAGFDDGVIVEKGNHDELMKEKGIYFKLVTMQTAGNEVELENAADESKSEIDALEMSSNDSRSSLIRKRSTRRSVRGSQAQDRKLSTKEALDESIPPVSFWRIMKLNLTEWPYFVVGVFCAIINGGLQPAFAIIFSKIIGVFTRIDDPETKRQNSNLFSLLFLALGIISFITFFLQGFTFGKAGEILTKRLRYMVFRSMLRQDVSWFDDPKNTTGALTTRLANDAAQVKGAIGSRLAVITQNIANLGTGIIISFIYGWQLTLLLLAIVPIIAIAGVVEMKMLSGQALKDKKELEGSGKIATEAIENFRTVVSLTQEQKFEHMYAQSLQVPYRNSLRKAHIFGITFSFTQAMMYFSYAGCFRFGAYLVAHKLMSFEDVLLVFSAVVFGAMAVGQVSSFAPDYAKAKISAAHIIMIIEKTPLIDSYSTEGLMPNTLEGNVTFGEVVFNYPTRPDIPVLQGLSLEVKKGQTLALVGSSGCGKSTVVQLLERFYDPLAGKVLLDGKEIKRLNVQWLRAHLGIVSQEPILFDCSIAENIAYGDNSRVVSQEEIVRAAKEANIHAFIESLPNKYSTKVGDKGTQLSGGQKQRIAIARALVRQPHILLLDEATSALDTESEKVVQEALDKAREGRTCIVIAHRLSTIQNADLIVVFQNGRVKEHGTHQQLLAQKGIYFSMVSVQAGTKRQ

COc1cc(-c2c(C)nc3cc(-c4cccs4)nn3c2-c2cc(OC)c(OC)c(OC)c2)cc(OC)c1OC
Activity [1]: 1.44% | Activity [2]: Active | Activity [3]: inactive | viability at 5 µM [4]: 95% | viability at 10 µM [5]: > 80% | Activity [6]: 13.87% | Activity [7]: 29.54% | IC50 [8]: 27 nM | inhibition [9]: Active | Ratio [10]: 663.44 | IC50 [11]: > 20000 nM | viability at 10 µM [12]: 84.4% | Ratio [13]: 247.4 | Activity [14]: Active | Activity [15]: Active | Activity [16]: Active | viability at 10 µM [17]: > 80% | Ratio [18]: 0.98 | Activity [19]: Active | viability at 10 µM [20]: 52.3% | IC50 [21]: 2.65 nM | Activity [22]: Active | Activity [23]: 6.17% | IC50 [24]: 2.96 nM | inhibition [25]: Active | Activity [26]: Active | Activity [27]: inactive | Ratio [28]: 0.88 | inhibition [29]: inactive | Activity [30]: 4.28% | Activity [31]: 7.98% | IC50 [32]: > 20000 nM | Activity [33]: Active | Activity [34]: Active | Activity [35]: inactive | IC50 [36]: 10.1 nM | viability at 10 µM [37]: > 80% | Activity [38]: Active | viability at 5 µM [39]: 97.7% | Activity [40]: Active | CI [41]: 0.09
